Legend:
Experiment in all cases: KINOMEscan kinase binding assay
[1] = biological target: T1, 384 kinases from the human genome (Homo sapiens, UniProt Q9NRP7); settings: kinase STK36 (Entrez STK36)
T1 construct: purchased Eurofin/DiscoverX
How it was run: (§1)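 Competition binding (KINOMEscan) across 384 human kinases with compound at 10 µM. Ligand binding was expressed relative to DMSO (100%) as the average of duplicates from one experiment. S(10) selectivity score was derived.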

[2] = biological target: T2, 384 kinases from the human genome (Homo sapiens, UniProt Q9BYP7); settings: kinase WNK3 (Entrez WNK3)
T2 construct: purchased Eurofin/DiscoverX
T2 sequence (Q9BYP7 whole entry): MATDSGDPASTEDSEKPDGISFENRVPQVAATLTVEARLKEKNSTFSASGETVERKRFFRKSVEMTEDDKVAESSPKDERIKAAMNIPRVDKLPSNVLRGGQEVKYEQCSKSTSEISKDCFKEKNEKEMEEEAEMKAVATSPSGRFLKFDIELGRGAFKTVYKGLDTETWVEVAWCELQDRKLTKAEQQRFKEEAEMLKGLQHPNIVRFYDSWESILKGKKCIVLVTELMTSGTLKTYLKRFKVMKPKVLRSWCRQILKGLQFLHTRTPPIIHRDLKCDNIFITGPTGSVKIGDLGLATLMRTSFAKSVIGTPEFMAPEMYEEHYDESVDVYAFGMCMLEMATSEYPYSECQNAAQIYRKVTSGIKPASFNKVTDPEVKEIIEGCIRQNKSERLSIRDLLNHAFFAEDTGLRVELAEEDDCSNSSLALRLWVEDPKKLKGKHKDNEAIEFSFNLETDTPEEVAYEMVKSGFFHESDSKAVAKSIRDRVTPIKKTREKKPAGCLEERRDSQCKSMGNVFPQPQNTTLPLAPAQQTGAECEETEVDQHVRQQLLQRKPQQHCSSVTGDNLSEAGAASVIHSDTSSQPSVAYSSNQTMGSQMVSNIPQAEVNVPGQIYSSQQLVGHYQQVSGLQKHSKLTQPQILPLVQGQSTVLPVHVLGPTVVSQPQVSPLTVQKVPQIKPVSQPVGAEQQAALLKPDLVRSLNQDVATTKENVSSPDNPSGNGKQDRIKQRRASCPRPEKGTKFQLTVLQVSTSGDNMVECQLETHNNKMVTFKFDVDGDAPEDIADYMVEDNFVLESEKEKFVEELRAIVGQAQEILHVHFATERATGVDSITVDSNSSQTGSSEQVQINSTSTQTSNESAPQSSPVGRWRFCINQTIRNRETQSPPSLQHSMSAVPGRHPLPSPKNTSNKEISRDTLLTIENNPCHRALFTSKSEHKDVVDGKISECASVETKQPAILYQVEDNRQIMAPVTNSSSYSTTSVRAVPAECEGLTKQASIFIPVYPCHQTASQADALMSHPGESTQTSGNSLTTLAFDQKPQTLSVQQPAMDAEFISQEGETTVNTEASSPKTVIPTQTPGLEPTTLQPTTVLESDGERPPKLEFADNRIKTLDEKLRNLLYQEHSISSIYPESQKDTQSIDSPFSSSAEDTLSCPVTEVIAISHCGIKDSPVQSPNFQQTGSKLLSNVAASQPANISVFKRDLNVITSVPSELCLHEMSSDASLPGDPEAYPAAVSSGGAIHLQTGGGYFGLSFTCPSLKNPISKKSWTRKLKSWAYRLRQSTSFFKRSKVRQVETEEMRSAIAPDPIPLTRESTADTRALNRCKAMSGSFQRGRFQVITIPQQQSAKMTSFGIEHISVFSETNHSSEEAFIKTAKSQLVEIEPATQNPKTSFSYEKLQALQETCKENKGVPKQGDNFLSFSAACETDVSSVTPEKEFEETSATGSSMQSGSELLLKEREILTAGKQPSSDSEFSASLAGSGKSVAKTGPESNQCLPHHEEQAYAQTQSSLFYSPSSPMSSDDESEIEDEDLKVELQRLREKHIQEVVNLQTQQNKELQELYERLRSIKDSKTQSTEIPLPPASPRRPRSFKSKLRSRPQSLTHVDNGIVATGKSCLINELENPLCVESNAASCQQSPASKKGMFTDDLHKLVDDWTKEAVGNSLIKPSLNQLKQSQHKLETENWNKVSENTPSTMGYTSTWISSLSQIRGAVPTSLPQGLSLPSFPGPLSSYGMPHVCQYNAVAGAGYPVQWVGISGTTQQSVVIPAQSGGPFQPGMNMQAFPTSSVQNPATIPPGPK
How it was run: as §1

[3] = biological target: T3, 384 kinases from the human genome (Homo sapiens, UniProt Q9Y3S1); settings: kinase WNK2 (Entrez WNK2)
T3 construct: purchased Eurofin/DiscoverX
How it was run: as §1

[4] = biological target: T4, 384 kinases from the human genome (Homo sapiens, UniProt P45985); settings: kinase MEK4 (Entrez MAP2K4)
T4 construct: purchased Eurofin/DiscoverX
T4 sequence (P45985 whole entry): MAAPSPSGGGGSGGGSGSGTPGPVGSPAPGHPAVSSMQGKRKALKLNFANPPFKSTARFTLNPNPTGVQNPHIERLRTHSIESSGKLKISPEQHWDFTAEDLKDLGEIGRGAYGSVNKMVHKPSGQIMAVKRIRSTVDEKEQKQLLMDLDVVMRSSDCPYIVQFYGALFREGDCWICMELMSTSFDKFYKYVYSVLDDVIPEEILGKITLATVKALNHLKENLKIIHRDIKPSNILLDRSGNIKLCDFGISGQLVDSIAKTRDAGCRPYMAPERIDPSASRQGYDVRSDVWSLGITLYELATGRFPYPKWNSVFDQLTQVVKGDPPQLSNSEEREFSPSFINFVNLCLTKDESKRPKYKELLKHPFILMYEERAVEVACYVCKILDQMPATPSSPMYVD
How it was run: as §1

[5] = biological target: T5, 384 kinases from the human genome (Homo sapiens, UniProt O94768); settings: kinase DRAK2 (Entrez STK17B)
T5 construct: purchased Eurofin/DiscoverX
How it was run: as §1

[6] = biological target: T6, 384 kinases from the human genome (Homo sapiens, UniProt P06239); settings: kinase LCK (Entrez LCK)
T6 construct: purchased Eurofin/DiscoverX
How it was run: as §1

[7] = biological target: T7, 384 kinases from the human genome (Homo sapiens, UniProt Q6P2M8); settings: kinase CAMK1B (Entrez PNCK)
T7 construct: purchased Eurofin/DiscoverX
How it was run: as §1

[8] = biological target: T8, 384 kinases from the human genome (Homo sapiens, UniProt P50613); settings: kinase CDK7 (Entrez CDK7)
T8 construct: purchased Eurofin/DiscoverX
How it was run: as §1

[9] = biological target: T9, 384 kinases from the human genome (Homo sapiens, UniProt Q8TBX8); settings: kinase PIP5K2C (Entrez PIP4K2C)
T9 construct: purchased Eurofin/DiscoverX
How it was run: as §1

[10] = biological target: T10, 384 kinases from the human genome (Homo sapiens, UniProt Q16816); settings: kinase PHKG1 (Entrez PHKG1)
T10 construct: purchased Eurofin/DiscoverX
How it was run: as §1

[11] = biological target: T11, 384 kinases from the human genome (Homo sapiens, UniProt Q9C098); settings: kinase DCAMKL3 (Entrez DCLK3)
T11 construct: purchased Eurofin/DiscoverX
How it was run: as §1

[12] = biological target: T12, 384 kinases from the human genome (Homo sapiens, UniProt O14920); settings: kinase IKK-beta (Entrez IKBKB)
T12 construct: purchased Eurofin/DiscoverX
How it was run: as §1

[13] = biological target: T13, 384 kinases from the human genome (Homo sapiens, UniProt Q8TD19); settings: kinase NEK9 (Entrez NEK9)
T13 construct: purchased Eurofin/DiscoverX
How it was run: as §1

[14] = biological target: T14, 384 kinases from the human genome (Homo sapiens, UniProt Q13464); settings: kinase ROCK1 (Entrez ROCK1)
T14 construct: purchased Eurofin/DiscoverX
How it was run: as §1

[15] = biological target: T15, 384 kinases from the human genome (Homo sapiens, UniProt P17948); settings: kinase FLT1 (Entrez FLT1)
T15 construct: purchased Eurofin/DiscoverX
How it was run: as §1

[16] = biological target: T16, 384 kinases from the human genome (Homo sapiens, UniProt Q9Y6R4); settings: kinase MAP3K4 (Entrez MAP3K4)
T16 construct: purchased Eurofin/DiscoverX
T16 sequence (Q9Y6R4 whole entry): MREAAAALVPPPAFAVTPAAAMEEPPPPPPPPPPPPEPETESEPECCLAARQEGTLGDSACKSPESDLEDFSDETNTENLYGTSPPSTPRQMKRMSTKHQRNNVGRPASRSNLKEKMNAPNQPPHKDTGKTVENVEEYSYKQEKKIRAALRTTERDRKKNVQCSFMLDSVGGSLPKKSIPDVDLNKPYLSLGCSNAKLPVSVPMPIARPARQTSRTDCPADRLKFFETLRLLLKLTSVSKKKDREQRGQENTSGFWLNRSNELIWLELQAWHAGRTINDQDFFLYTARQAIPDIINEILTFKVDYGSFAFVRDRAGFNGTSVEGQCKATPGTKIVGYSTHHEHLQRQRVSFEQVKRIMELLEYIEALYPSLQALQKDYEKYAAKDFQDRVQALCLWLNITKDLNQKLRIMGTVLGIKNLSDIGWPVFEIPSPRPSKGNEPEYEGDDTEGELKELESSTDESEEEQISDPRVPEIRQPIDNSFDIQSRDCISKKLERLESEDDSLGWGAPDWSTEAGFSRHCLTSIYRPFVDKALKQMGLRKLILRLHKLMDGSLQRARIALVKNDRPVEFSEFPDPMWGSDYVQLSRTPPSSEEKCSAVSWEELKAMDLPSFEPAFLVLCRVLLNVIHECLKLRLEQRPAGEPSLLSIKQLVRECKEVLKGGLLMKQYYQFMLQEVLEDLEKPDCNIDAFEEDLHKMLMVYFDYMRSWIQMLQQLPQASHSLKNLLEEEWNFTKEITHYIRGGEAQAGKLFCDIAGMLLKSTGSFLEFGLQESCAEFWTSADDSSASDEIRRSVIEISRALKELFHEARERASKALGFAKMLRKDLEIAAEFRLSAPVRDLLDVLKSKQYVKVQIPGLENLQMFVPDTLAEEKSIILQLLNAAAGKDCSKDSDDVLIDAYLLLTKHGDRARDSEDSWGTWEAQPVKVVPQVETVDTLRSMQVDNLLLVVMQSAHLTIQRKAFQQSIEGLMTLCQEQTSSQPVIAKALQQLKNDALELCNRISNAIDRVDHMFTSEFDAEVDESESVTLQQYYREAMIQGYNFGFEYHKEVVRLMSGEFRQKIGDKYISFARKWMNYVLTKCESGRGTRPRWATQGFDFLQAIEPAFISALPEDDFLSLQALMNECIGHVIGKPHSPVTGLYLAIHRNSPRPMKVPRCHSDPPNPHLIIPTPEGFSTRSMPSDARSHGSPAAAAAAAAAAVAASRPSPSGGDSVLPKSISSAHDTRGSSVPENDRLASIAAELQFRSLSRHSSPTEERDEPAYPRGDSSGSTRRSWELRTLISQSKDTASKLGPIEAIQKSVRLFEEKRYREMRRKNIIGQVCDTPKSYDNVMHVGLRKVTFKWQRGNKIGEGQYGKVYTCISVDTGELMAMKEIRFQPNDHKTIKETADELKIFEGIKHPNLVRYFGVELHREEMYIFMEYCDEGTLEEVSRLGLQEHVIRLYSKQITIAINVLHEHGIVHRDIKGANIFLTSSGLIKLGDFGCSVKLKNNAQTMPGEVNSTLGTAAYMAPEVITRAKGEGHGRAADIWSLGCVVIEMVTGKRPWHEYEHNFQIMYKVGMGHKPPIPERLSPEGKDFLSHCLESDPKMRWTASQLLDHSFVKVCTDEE
How it was run: as §1

[17] = biological target: T17, 384 kinases from the human genome (Homo sapiens, UniProt P50750); settings: kinase CDK9 (Entrez CDK9)
T17 construct: purchased Eurofin/DiscoverX
How it was run: as §1

[18] = biological target: T18, 384 kinases from the human genome (Homo sapiens, UniProt Q6P3R8); settings: kinase NEK5 (Entrez NEK5)
T18 construct: purchased Eurofin/DiscoverX
How it was run: as §1

[19] = biological target: T19, 384 kinases from the human genome (Homo sapiens, UniProt Q9H2X6); settings: kinase HIPK2 (Entrez HIPK2)
T19 construct: purchased Eurofin/DiscoverX
How it was run: as §1

[20] = biological target: T20, 384 kinases from the human genome (Homo sapiens, UniProt P11309); settings: kinase PIM1 (Entrez PIM1)
T20 construct: purchased Eurofin/DiscoverX
How it was run: as §1

[21] = biological target: T21, 384 kinases from the human genome (Homo sapiens, UniProt Q9P1W9); settings: kinase PIM2 (Entrez PIM2)
T21 construct: purchased Eurofin/DiscoverX
How it was run: as §1

[22] = biological target: T22, 384 kinases from the human genome (Homo sapiens, UniProt P08631); settings: kinase HCK (Entrez HCK)
T22 construct: purchased Eurofin/DiscoverX
How it was run: as §1

[23] = biological target: T23, 384 kinases from the human genome (Homo sapiens, UniProt P35968); settings: kinase VEGFR2 (Entrez KDR)
T23 construct: purchased Eurofin/DiscoverX
How it was run: as §1

[24] = biological target: T24, 384 kinases from the human genome (Homo sapiens, UniProt Q9H2G2); settings: kinase SLK (Entrez SLK)
T24 construct: purchased Eurofin/DiscoverX
How it was run: as §1

[25] = biological target: T25, 384 kinases from the human genome (Homo sapiens, UniProt Q5S007); settings: kinase LRRK2 (Entrez LRRK2)
T25 construct: purchased Eurofin/DiscoverX
How it was run: as §1

[26] = biological target: T26, 384 kinases from the human genome (Homo sapiens, UniProt Q9P0L2); settings: kinase MARK1 (Entrez MARK1)
T26 construct: purchased Eurofin/DiscoverX
How it was run: as §1

T1 sequence (Q9NRP7 whole entry): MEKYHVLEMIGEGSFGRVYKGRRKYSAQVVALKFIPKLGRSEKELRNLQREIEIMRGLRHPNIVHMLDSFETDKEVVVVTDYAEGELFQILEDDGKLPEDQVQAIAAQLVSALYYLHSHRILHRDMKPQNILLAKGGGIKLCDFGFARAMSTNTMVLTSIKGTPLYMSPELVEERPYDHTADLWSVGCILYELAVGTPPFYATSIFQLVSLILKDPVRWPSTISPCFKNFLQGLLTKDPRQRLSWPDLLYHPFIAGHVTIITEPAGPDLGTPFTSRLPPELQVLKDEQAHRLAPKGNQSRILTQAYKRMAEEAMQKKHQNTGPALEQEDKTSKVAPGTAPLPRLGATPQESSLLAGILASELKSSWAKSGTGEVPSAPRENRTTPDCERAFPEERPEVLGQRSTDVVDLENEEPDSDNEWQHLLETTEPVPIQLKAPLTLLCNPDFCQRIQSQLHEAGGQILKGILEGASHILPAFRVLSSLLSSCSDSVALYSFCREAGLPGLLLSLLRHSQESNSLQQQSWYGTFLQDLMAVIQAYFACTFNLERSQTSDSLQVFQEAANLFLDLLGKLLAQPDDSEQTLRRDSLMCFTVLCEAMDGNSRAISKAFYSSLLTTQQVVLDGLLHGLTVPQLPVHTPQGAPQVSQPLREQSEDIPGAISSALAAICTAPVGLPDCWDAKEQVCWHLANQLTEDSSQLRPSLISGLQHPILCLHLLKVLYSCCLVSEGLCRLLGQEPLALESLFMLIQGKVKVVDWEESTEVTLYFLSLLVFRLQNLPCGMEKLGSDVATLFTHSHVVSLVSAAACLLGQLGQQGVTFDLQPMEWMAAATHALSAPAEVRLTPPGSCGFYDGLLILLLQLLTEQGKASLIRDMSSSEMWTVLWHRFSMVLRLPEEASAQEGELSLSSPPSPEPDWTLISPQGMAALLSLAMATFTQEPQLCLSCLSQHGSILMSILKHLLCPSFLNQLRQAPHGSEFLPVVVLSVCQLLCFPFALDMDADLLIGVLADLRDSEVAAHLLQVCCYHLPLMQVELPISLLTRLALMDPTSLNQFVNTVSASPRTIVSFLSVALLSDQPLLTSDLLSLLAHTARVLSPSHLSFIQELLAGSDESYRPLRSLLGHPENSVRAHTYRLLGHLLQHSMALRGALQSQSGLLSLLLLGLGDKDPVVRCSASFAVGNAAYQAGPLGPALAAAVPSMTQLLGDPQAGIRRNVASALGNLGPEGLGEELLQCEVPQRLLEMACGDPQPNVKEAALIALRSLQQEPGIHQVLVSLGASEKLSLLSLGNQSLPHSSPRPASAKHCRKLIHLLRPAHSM

With `CC(C)C(=O)N1CCN(c2ccc(NC(=O)c3cc4ccccc4o3)cc2Cl)CC1` [Compound 21] the “Percent Control” value [1] was 88%, the “Percent Control” value [2] was 90% and the “Percent Control” value [3] was 100%. For the same compound, the “Percent Control” value [4] was 93%, the “Percent Control” value [5] was 94% and the “Percent Control” value [6] was 97%. For the same compound, the “Percent Control” value [7] was 77%, the “Percent Control” value [8] was 83% and the “Percent Control” value [9] was 65%. For the same compound, the “Percent Control” value [10] was 87%, the “Percent Control” value [11] was 97% and the “Percent Control” value [12] was 98%. For the same compound, the “Percent Control” value [13] was 100%, the “Percent Control” value [14] was 88% and the “Percent Control” value [15] was 87%. The “Percent Control” value [16] was 73%, the “Percent Control” value [17] was 99% and the “Percent Control” value [18] was 74%. The “Percent Control” value [19] was 100%, the “Percent Control” value [20] was 96% and the “Percent Control” value [21] was 100%. The “Percent Control” value [22] was 99%, the “Percent Control” value [23] was 93% and the “Percent Control” value [24] was 100%. The “Percent Control” value [25] was 89% and the “Percent Control” value [26] was 93%.
